From patent US10710978B2, “STK4 inhibitors for treatment of hematologic malignancies” (Dana-Farber Cancer Institute, Inc., priority 2015, dated 2020) come the findings set out here.

One assay concerns the target STK24 (MST3) (Homo sapiens (Human), UniProt Q9Y6E0). Description: Z-lyte biochemical IC50 assay (Invitrogen). The following applies: ATP concentration matched the Km. How it is done: (§1) STK4 (MST1), STK3 (MST2); STK24 (MST3) and MST4 Assays
(§2) Biochemical IC50s were measured at Invitrogen using Z-lyte technology. Briefly, for STK4, the 2×STK4 (MST1)/Ser/Thr 07 mixture was prepared in 50 mM HEPES pH 7.5, 0.01% BRIJ35, 10 mM MgCl2, 1 mM EGTA. The final 10 μL Kinase Reaction consisted of 6.25-160 ng STK4 (MST1) and 2 μM Ser/Thr 07 in 50 mM HEPES pH 7.5, 0.01% BRIJ-35, 10 mM MgCl2, 1 mM EGTA. After the 1 hour Kinase Reaction incubation, 5 μL of a 1:100000 dilution of Development Reagent A was added. Compounds were screened in a 10 point titration with 3-fold serial dilutions starting at a concentration of 10 μM. The biochemical IC50s against other STK family members were measured similarly. The ATP concentration used matched the Km for each kinase.

Another assay concerns the target STK3 (MST2) (Homo sapiens (Human), UniProt Q13188). Nature of the assay: Z-lyte biochemical IC50 assay (Invitrogen). The following applies: ATP concentration matched the Km. How it is done: as §1, §2
A further assay addresses STK4 (MST1) (Homo sapiens (Human), UniProt Q13043). Nature of the assay: Z-lyte biochemical IC50 assay (Invitrogen). The following applies: ATP concentration matched the Km. How it is done:
as §1, §2

Another assay relates to YAP1. Nature of the assay: Western blotting. The format is cell-based. The settings on record: H929 and MM.1S cells, 3 μM and 10 μM, 72 hours. The source says:
(§3) MM.1S, KMS20 and H929 cells are counted, diluted and plated. Cells are then […] with DMSO or different concentration of a compound of the present application for 6 hrs, 24 hrs or 48 hrs. MM cells are then collected and centrifuged at RT and the pellets are re-suspended in lysis buffer. Cell lysates are subjected to sodium dodecyl sulfate-polyacrylamide gel electrophoresis SDS-PAGE, transferred to nitrocellulose membranes, and immunoblotted with different antibodies.
(§4) MM.1S, KMS20 and H929 cells were counted, diluted and plated in six-well plates to a final concentration of 500,000 cells/well. Cells were then […] with DMSO or different concentration of a compound of the present application for 6 hrs, 24 hrs or 48 hrs. MM cells were then collected and centrifuged for 5 min, 1300 rpm at RT. The pellets were re-suspended in lysis buffer Laemli 1× (Laemli 5×: SDS 10%, DTT 500 mM, Tris-HCl pH6.8 0.4M, BromoFenol Blue, Glycerol 50%). Cell lysates were subjected to sodium dodecyl sulfate-polyacrylamide gel electrophoresis SDS-PAGE, transferred to nitrocellulose membranes, and immunoblotted with different antibodies: YAP1 (#4912), p-YAP1 (S127) (#13008), LATS1 (#9153), p-LATS1 (Thr1079) (#8654), MOB1 (#3863), p-MOB1 (Thr12) (#8843), p-MST1/p-MST2 (Thr183/Thr180) (#3681), p21 (#2947), PARP (#9532), ERK, STAT, and GAPDH (#5174) from Cell Signaling, Beverly, Mass., United States; STK4 (ab57836) (from Abcam, Cambridge, Mass., United States); PUMA (sc-28226), BAX (sc-20067), from Santa Cruz, Dallas, Tex., United States; β-actin from Sigma-Aldrich (St. Louis, Mo., United States). All antibodies were diluted 1:500, except for β-actin antibody (1:50,000 dilution). In FIG. 8, H929 cells were treated with Compound I-9 or DMSO at 1 μM concentration for 24 hours. Lysates were then obtained and immunoblot was performed using antibodies against PARP, YAP1, PUMA, BAX. p21, and GAPDH.
In FIG. 10A, H929 and MM.1S cells were treated with Compound I-1 or DMSO at 1 μM and 10 μM concentrations for 16 hours. Lysates were then obtained and immunoblot was performed using antibodies against YAP1 and GAPDH.
In FIG. 12, H929 and MM. 1S cells were treated with Compound I-9, Compound I-12, or DMSO at 3 μM and 10 μM concentrations for 72 hours. Lysates were then obtained and immunoblot was performed using antibodies against YAP1 and Actin as loading control.
FIG. 13 show a Western blot of H929 and MM.1S cells treated with Compound I-13, Compound I-28, Compound I-9, KIN001-305, BMS536924, or DMSO at 1 μM concentration for 16 hours. Lysates were then obtained and immunoblot was performed using antibodies against YAP1, Actin, and pMOB1.

The subject of the next assay is p-MOB1. Description: Western blotting. The format is cell-based. The following applies: MM.1S cells, 1 μM and 10 μM, 6 hours.
Text: as §3, §4
In FIGS. 26A-26J, MM.1S cells were treated with Compound I-6, Compound I-31, Compound I-30, Compound I-22, Compound I-27, Compound I-1, Compound I-23, Compound I-13, Compound I-28, Compound I-9, or DMSO at 1 μM and 10 μM concentrations for 6 hours. Lysates were then obtained and immunoblot was performed using antibodies against MOB1 and p-MOB1. As shown from FIGS. 26A-26J, Compound I-22, Compound I-27, Compound I-1, Compound I-23, Compound I-13, Compound I-28, and Compound I-9 reduced PMOB1 levels at different concentrations.
On the technique in general: A western blot detects proteins with antibodies after separation by electrophoresis.

For the next assay, the target named is STK4 (Homo sapiens (Human), UniProt Q13043). Description: KiNativ Platform experiment, MM.1S cell lysates, biotinylated ATP, Western blot. The format is binding. The settings on record: 10 μM, 20 minutes, then biotinylated ATP 10 minutes. How it is done: FIG. 32A and FIG. 32B show the results of a KiNativ™ Platform experiment obtained after incubating MM.1S cell lysates with 10 μM of the indicated compounds for 20 minutes, followed by incubation with biotinylated ATP for 10 minutes. FIG. 32A is a graph showing the ratio of MEK2 to STK4 derived from the Western blotting band signals in FIG. 32B, in MM.1S cell lysates treated with 10 μM of Compound I-9, I-13, or I-27 or KIN001-305 followed by incubation with biotinylated ATP. FIG. 32B is a Western blot showing the levels of STK4 and MEK2 in MM.1S cells treated with 10 μM of Compound I-9, I-13, or I-27 or KIN001-305 followed by incubation with biotinylated ATP.
STK4, sequence (Q13043 whole entry): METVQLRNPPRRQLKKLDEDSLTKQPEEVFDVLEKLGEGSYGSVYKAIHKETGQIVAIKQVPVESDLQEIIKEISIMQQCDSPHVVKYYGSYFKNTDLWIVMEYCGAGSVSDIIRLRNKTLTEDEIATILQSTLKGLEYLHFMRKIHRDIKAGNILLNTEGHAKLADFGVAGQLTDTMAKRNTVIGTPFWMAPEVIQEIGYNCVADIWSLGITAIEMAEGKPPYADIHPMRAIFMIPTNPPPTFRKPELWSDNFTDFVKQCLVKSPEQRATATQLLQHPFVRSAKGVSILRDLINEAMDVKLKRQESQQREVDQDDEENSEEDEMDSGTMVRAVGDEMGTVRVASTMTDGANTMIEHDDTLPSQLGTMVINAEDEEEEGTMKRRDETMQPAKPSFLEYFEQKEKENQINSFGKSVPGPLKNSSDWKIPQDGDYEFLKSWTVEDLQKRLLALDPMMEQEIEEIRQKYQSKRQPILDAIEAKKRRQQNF

SMILES strings stand for the structures.

STK4 (MST1), sequence (Q13043 whole entry): as above
STK3 (MST2), sequence (Q13188 whole entry): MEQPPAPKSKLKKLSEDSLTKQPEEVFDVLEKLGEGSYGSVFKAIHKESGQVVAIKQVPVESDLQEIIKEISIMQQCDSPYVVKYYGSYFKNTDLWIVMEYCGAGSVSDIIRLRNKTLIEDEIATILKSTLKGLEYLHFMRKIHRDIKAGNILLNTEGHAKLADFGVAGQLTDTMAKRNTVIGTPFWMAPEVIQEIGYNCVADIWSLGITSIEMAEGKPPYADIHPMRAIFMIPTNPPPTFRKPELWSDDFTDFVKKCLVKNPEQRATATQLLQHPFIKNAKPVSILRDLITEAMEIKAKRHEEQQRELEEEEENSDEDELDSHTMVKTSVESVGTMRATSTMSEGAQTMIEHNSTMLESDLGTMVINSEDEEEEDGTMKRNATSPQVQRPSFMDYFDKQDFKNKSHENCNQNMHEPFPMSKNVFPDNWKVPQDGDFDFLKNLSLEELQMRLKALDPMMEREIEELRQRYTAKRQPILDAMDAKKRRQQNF
STK24 (MST3), sequence (Q9Y6E0 whole entry): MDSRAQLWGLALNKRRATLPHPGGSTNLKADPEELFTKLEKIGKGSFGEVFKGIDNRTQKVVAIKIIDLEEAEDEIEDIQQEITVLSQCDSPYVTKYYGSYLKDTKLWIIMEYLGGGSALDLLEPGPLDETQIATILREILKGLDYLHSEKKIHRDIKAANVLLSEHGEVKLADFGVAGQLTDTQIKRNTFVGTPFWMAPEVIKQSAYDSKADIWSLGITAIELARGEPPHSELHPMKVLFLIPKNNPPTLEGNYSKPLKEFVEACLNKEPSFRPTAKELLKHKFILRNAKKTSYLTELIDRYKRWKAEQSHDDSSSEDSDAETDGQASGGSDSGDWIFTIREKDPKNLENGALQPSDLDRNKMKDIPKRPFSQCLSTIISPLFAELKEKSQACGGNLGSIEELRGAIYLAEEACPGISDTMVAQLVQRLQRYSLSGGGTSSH

Take `Nc1ncc(-c2cccc(S(=O)(=O)NC3CC3)c2)cc1-c1ccc2c(c1)CCNC2=O` [Compound I-12, 3-(6-amino-5-(1-oxo-1,2,3,4-tetrahydroisoquinolin-6-yl)pyridin-3-yl)-N-cyclopropylbenzenesulfonamide]: the figures for the IC50 at STK24 (MST3), on STK3 (MST2) and against STK4 (MST1) were 200 to 900 nM, 40 to 200 nM and 40 to 200 nM, respectively. Further, the YAP1 levels result with YAP1 is recorded as “upregulation”.
As for `Nc1ncc(-c2cc([N+](=O)[O-])c(Cl)cc2F)cc1-c1ccc2c(c1)CCNC2=O` [Compound I-22, 6-(2-amino-5-(4-chloro-2-fluoro-5-nitrophenyl)pyridin-3-yl)-3,4-dihydroisoquinolin-1(2H)-one], the 50% inhibitory concentration (IC50) at STK3 (MST2) and against STK4 (MST1) was 40 to 200 nM throughout. For the same compound, the PMOB1 levels entry in the assay on p-MOB1 is “reduced”.
With `Nc1ncc(-c2cc3c(cc2F)OCC(=O)N3)cc1-c1ccc2c(c1)CCNC2=O` [Compound I-23, 6-(6-amino-5-(1-oxo-1,2,3,4-tetrahydroisoquinolin-6-yl)pyridin-3-yl)-7-fluoro-2H-benzo[b][1,4]oxazin-3(4H)-one], the IC50 is 40 to 200 nM against STK3 (MST2) and under 40 nM against STK4 (MST1). Further, the PMOB1 levels result with p-MOB1 is recorded as “reduced”.
Take `Nc1ncc(-c2cc([N+](=O)[O-])c(NCc3ccccc3)cc2F)cc1-c1ccc2c(c1)CCNC2=O` [Compound I-27, 6-(2-amino-5-(4-(benzylamino)-2-fluoro-5-nitrophenyl)pyridin-3-yl)-3,4-dihydroisoquinolin-1(2H)-one]: on STK4 (MST1), the IC50 lay in the range of 40 to 200 nM. The “affinity for STK4, as of ATP binding” value on STK4 is “highest affinity”. For the same compound, the PMOB1 levels result in the assay with p-MOB1 is “reduced”.
`CN(C1CC1)S(=O)(=O)c1ccc(-c2cnc(N)c(-c3ccc4c(c3)CCNC4=O)c2)cc1` [KIN001-305, reference compound] came in with a half-inhibitory concentration (IC50) on STK4 (MST1) of under 40 nM. Moreover, the “affinity for STK4, as of ATP binding” value on STK4 is listed as “highest affinity”.

In general, IC50 refers to the concentration that gives 50% inhibition.
